These results are taken from US9187471B2, “Pyrido [4,3-b] indole and pyrido [3,4-b] indole derivatives and methods of use” (Medivation Technologies, Inc., priority 2010, dated 2015).

By inhibition is commonly meant the relative decrease from the control value, in per cent.

The target of assay [1] is T1, human recombinant adrenergic α2C receptor (Homo sapiens, UniProt P18825).
T1 construct: expressed in transfected cells; host or cells: insect Sf9 cells
T1 sequence (P18825 1-462): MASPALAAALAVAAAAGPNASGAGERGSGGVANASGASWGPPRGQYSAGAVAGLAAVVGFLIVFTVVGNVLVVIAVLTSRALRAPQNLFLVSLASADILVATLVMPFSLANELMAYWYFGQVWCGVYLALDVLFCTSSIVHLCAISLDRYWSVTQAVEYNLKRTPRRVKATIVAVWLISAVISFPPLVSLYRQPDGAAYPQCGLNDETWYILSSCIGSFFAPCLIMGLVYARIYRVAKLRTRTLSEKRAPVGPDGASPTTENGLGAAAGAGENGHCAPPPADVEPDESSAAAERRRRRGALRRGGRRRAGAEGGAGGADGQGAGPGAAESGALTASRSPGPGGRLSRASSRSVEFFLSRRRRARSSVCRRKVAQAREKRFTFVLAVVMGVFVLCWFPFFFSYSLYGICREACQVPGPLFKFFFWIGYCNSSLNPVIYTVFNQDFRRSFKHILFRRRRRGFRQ
Kind of assay: Adrenergic α2C radioligand binding ([3H]MK-912). To be noted: read-out: Adrenergic (0.1 μM) a2C, percent inhibition of specific binding; compound at 0.1 μM; 1 nM [3H]MK-912. On the procedure:
To evaluate in radioligand binding assays the activity of compounds of the invention, human recombinant adrenergic α2C receptor expressed in insect Sf9 cells (Uhlen, S. et al, J. Pharmacol. Exp. Ther. 271:1558, 1994) in a modified Tris-HCl buffer (50 mM Tris-HCl, pH 7.4, 12.5 mM MgCl2, 2 mM EDTA) was used. Compounds of the invention were incubated with 1 nM [^3H]MK-912 for 60 min at 25° C. Non-specific binding was estimated in the presence of 10 μM WB-4101. Receptor proteins were filtered and washed, the filters were then counted to determine [^3H]MK-912 specifically bound. […] Compounds of the invention were tested in this biochemical assay and percent inhibition of specific binding was determined.

Assay [2] has as its target T2, human recombinant serotonin (5-Hydroxytryptamine) 5-HT6 receptor (Homo sapiens, UniProt P50406).
T2 construct: expressed in transfected cells; host or cells: HeLa
Kind of assay: Serotonin 5-HT6 radioligand binding ([3H]LSD). To be noted: compound at 0.1 μM; read-out: Inhibition of ligand binding, Serotonin 5-HT6 (percent inhibition of specific binding). An excerpt:
Receptor proteins were filtered and washed, the filters were then counted to determine [3H]LSD specifically bound.

Assay [3] concerns the target T3, human recombinant dopamine D2L receptor (Homo sapiens, UniProt P14416).
T3 construct: expressed in transfected cells; host or cells: CHO
Kind of assay: Dopamine D2L radioligand binding ([3H]Spiperone). To be noted: read-out: Dopamine D2L (1 μM), percent inhibition of specific binding; compound at 1 μM; 0.16 nM [3H]Spiperone. On the procedure:
Non-specific binding was estimated in the presence of 10 μM Haloperidol. Receptor proteins were filtered and washed, the filters were then counted to determine [^3H]Spiperone specifically bound.

The target in assay [4] is T4, rat adrenergic α1A receptor (Rattus norvegicus, UniProt P43140).
T4 construct: rat adrenergic α1A receptor obtained from Wistar Rat submaxillary glands; from tissue; host or cells: Wistar rat submaxillary glands
T4 sequence (P43140 1-466): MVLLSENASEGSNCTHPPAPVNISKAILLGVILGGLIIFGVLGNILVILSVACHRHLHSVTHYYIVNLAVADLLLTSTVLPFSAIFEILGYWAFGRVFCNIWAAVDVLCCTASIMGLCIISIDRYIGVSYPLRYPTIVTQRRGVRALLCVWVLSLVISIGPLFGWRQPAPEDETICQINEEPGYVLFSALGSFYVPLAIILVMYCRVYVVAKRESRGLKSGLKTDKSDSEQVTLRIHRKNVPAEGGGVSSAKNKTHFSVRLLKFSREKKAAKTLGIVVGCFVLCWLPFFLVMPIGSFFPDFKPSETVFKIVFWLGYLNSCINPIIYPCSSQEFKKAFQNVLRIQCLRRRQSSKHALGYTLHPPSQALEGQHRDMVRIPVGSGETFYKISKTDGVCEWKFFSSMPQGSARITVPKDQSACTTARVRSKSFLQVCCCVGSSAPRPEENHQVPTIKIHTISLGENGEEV
The assay can be described thus: Adrenergic α1A radioligand binding ([3H]Prazosin). To be noted: read-out: Adrenergic (0.1 μM) a1A, percent inhibition of specific binding; compound at 0.1 μM; 0.25 nM [3H]Prazosin. On the procedure: To evaluate in radioligand binding assays the activity of compounds of the invention, rat adrenergic α1A receptor obtained from Wistar Rat submaxillary glands (Michel, A. et al, Br. J. Pharmacol. 98:883, 1989) in a modified Tris-HCl buffer (50 mM Tris-HCl buffer, pH 7.4, 0.5 mM EDTA) was used. Compounds of the invention were incubated with 0.25 nM [^3H]Prazosin for 60 min at 25° C. Non-specific binding was estimated in the presence of 10 μM phentolamine Receptor proteins were filtered and washed, the filters were then counted to determine [^3H]Prazosin specifically bound. […] Compounds of the invention were tested in this biochemical assay and percent inhibition of specific binding was determined.

In assay [5] the target is T5, human recombinant serotonin (5-Hydroxytryptamine) 5-HT5A receptor (Homo sapiens, UniProt P47898).
T5 construct: expressed in transfected cells; host or cells: CHO-K1
Kind of assay: Serotonin 5-HT5A radioligand binding ([3H]LSD). To be noted: compound at 0.1 μM; read-out: Inhibition of ligand binding, Serotonin 5-HT5A (percent inhibition of specific binding). On the procedure: Compounds of the invention were incubated with 1.7 nM [^3H]Lysergic acid diethylamide (LSD) for 60 min at 37° C. […] Receptor proteins were filtered and washed, the filters were counted to determine [^3H]LSD specifically bound.

Assay [6] deals with T6, human recombinant serotonin (5-Hydroxytryptamine) 5-HT7 receptor (Homo sapiens, UniProt P34969).
T6 construct: expressed in transfected cells; host or cells: CHO
The assay can be described thus: Serotonin 5-HT7 radioligand binding ([3H]LSD). To be noted: compound at 0.1 μM; read-out: Inhibition of ligand binding, Serotonin 5-HT7 (percent inhibition of specific binding). As to the method:
Lysergic acid diethylamide (LSD) for 120 min. at 25° C. […] Receptor proteins were filtered and washed, the filters were then counted to determine [^3H]LSD specifically bound.

In assay [7] the target is T7, human recombinant serotonin (5-Hydroxytryptamine) 5-HT2A receptor (Homo sapiens, UniProt P28223).
T7 construct: expressed in transfected cells; host or cells: CHO-K1
Kind of assay: Serotonin 5-HT2A radioligand binding ([3H]Ketanserin). To be noted: compound at 0.1 μM; read-out: Inhibition of ligand binding, Serotonin 5-HT2A (percent inhibition of specific binding). As to the method: Compounds of the invention were incubated with 0.5 nM [^3H]Ketanserin for 60 min at 25° C. Non-specific binding was estimated in the presence of 1 μM Mianserin. Receptor proteins were filtered and washed, the filters were then counted to determine [^3H]Ketanserin specifically bound.

T7 sequence (P28223 whole entry): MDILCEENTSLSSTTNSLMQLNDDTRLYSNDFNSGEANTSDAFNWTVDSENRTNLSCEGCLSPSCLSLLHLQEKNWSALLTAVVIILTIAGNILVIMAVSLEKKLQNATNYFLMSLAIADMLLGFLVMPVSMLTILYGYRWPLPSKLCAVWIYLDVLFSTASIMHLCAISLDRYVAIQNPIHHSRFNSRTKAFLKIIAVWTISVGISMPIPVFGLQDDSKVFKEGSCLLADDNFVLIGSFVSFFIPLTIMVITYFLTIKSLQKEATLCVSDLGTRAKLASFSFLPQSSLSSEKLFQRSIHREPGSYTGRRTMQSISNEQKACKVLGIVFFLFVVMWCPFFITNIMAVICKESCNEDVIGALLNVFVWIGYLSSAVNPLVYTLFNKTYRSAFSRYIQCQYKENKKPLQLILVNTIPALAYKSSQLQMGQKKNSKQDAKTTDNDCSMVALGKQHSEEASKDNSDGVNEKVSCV
T6 sequence (P34969 whole entry): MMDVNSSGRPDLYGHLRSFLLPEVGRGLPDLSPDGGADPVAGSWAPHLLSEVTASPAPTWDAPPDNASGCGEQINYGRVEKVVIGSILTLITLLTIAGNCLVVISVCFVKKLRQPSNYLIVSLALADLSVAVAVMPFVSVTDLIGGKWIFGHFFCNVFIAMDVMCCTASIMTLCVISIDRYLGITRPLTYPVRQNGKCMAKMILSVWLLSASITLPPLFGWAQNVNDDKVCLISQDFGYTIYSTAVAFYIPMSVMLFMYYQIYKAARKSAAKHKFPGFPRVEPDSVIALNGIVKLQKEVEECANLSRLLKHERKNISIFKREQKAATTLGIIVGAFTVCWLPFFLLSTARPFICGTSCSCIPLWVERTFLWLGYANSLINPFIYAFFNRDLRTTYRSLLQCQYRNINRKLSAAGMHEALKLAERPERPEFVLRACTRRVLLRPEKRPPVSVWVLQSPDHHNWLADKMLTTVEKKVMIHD
T5 sequence (P47898 whole entry): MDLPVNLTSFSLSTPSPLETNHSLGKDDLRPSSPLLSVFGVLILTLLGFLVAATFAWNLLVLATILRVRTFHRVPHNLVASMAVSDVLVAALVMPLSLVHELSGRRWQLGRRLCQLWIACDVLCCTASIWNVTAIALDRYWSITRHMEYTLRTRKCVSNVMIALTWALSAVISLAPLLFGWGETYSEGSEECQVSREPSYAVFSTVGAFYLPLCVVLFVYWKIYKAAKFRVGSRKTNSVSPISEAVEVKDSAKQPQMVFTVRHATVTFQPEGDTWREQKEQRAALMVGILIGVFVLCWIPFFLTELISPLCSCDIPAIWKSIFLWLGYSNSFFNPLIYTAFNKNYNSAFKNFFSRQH
T2 sequence (P50406 whole entry): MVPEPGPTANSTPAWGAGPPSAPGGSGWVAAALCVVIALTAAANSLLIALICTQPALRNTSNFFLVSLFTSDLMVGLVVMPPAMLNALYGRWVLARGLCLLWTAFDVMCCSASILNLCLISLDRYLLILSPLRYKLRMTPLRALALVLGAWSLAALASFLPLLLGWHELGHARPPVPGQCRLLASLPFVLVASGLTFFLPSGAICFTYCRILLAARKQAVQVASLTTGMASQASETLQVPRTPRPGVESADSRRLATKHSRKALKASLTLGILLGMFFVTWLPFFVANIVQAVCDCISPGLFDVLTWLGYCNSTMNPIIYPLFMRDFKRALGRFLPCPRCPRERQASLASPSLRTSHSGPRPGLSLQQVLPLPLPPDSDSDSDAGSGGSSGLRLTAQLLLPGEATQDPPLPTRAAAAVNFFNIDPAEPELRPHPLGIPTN
T3 sequence (P14416 whole entry): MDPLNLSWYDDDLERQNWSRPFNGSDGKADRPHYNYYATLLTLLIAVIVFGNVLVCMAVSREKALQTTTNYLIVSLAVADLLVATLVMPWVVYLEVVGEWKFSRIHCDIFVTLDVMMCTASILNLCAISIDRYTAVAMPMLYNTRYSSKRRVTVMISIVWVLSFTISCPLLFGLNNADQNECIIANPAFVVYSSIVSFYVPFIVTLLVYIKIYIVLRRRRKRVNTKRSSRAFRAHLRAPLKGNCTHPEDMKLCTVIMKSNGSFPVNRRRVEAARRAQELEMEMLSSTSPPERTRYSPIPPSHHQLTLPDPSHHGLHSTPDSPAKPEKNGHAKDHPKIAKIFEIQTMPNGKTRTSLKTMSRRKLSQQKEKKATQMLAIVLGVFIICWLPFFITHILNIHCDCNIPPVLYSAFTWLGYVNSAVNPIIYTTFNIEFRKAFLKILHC

With `Cc1ccc2c(c1)c1c(n2-c2cccc(-c3sccc3C)c2)CCN(C)C1` [Compound 43, 2,8-dimethyl-5-(3-(3-methylthiophen-2-yl)phenyl)-2,3,4,5-tetrahydro-1H-pyrido[4,3-b]indole], the inhibition at 0.1 µM in assay [1] was -16%; in assay [2] it was 28%; in assay [4] it was 13%; in assay [5] it was 39%; in assay [6], 33%; in assay [7] it was 102%. The inhibition at 1 µM in assay [3] came out at 26%.

Take `Cc1ccc2c(c1)c1c(n2-c2cccc(-c3ccc(F)nc3)c2)CCN(C)C1` [Compound 44, 5-(3-(6-fluoropyridin-3-yl)phenyl)-2,8-dimethyl-2,3,4,5-tetrahydro-1H-pyrido[4,3-b]indole]: the inhibition at 0.1 µM is 10% in assay [1]; 21% in assay [2]; 15% in assay [4]; 61% in assay [5]; 40% in assay [6]; 103% in assay [7]. The inhibition at 1 µM in assay [3] was 23%.

`CC(=O)Nc1ccc(-c2cccc(-n3c4c(c5cc(C)ccc53)CN(C)CC4)c2)cn1` [Compound 45, N-(5-(3-(2,8-dimethyl-3,4-dihydro-1H-pyrido[4,3-b]indol-5(2H)-yl)phenyl)pyridin-2-yl)acetamide]: the inhibition at 0.1 µM in assay [1] was found to be 7%; in assay [2], 6%; in assay [4], 13%; in assay [5], 37%; in assay [6], 51%; in assay [7], 71%. The inhibition at 1 µM in assay [3] turned out to be 20%.

Regarding `Cc1ccc2c(c1)c1c(n2-c2cccc(-c3cnn(C)c3)c2)CCN(C)C1` [Compound 46, 2,8-dimethyl-5-(3-(1-methyl-1H-pyrazol-4-yl)phenyl)-2,3,4,5-tetrahydro-1H-pyrido[4,3-b]indole], the inhibition at 0.1 µM in assay [1] was found to be 6%; in assay [2], 14%; in assay [4], 16%; in assay [5] it was 32%; in assay [6], 51%; in assay [7], 84%. Besides, in assay [3], the inhibition at 1 µM came to 20%.

`Cc1cc(C)c2c(c1)c1c(n2-c2cccc3ncccc23)CCN(C)C1` [Compound 47]: the inhibition at 0.1 µM in assay [1] is 11%; in assay [2], 18%; in assay [4], -1%; in assay [5] it was 29%; in assay [6] it was 36%; in assay [7], 1%. Besides, the inhibition at 1 µM in assay [3] amounted to 19%.

Turning to `Cc1cc(C)c2c(c1)c1c(n2-c2ccc3ncccc3c2)CCN(C)C1` [Compound 48], the inhibition at 0.1 µM is -7% in assay [1]; 20% in assay [2]; -6% in assay [4]; 10% in assay [5]; 23% in assay [6]; 13% in assay [7]. Moreover, in assay [3], the inhibition at 1 µM worked out at 41%.

For `Cc1ccc2c(c1)c1c(n2-c2cscc2-c2ccc(O)nc2)CCN(C)C1` [Compound 49], the inhibition at 0.1 µM in assay [1] was -10%; in assay [2], 6%; in assay [4], 15%; in assay [5], 52%; in assay [6], 86%; in assay [7] it was 18%. Moreover, in assay [3], the inhibition at 1 µM was determined as 1%.

As for `Cc1csc(-c2cscc2-n2c3c(c4cc(C)ccc42)CN(C)CC3)c1` [Compound 50], the inhibition at 0.1 µM in assay [1] worked out at 90%; in assay [2] it was 36%; in assay [4], 65%; in assay [5], 81%; in assay [6] it was 97%; in assay [7], 86%. The inhibition at 1 µM in assay [3] amounted to 36%.

Regarding `Cc1ccc2c(c1)c1c(n2-c2cccc(-c3cc4ccccc4s3)c2)CCN(C)C1` [Compound 51, 5-(3-(benzo[b]thiophen-2-yl)phenyl)-2,8-dimethyl-2,3,4,5-tetrahydro-1H-pyrido[4,3-b]indole], the inhibition at 0.1 µM was -9% in assay [1]; 15% in assay [2]; -6% in assay [4]; 5% in assay [5]; 13% in assay [6]; 86% in assay [7]. In assay [3], the inhibition at 1 µM came out at 3%.

On to `Cc1ccc2c(c1)c1c(n2-c2cccc(-c3ccc(O)nc3)c2)CCN(C)C1` [Compound 52, 5-(3-(2,8-dimethyl-3,4-dihydro-1H-pyrido[4,3-b]indol-5(2H)-yl)phenyl)pyridin-2-ol], for which the inhibition at 0.1 µM in assay [1] was 2%; in assay [2] it was 17%; in assay [4], -1%; in assay [5], 55%; in assay [6] it was 14%; in assay [7], 76%. Also, in assay [3], the inhibition at 1 µM was 21%.

Turning to `Cc1ccc2c(c1)c1c(n2-c2cccc(-c3ccc4c(ccn4C)c3)c2)CCN(C)C1` [Compound 53, 2,8-dimethyl-5-(3-(1-methyl-1H-indol-5-yl)phenyl)-2,3,4,5-tetrahydro-1H-pyrido[4,3-b]indole], the inhibition at 0.1 µM in assay [1] was 7%; in assay [2], 11%; in assay [4], -11%; in assay [5], 11%; in assay [6], 4%; in assay [7], 89%. Further, the inhibition at 1 µM in assay [3] worked out at 13%.
